In one data set the target is tau construct K19 (Homo sapiens, UniProt P10636). The experiment in a line: Thioflavine S (ThS) assay for aggregation of tau. The settings on record: 10 μM tau construct K19, 2.5 μM heparin, ThS fluorescence; for DC50: read-out: DC50; for IC50: over night at 37° C., read-out: ID50 (the source's name). It counts as biochemical. How it is done:
Thioflavine S (ThS) Assay for aggregation of tau: 10 μM of the tau construct K19 were incubated with compounds in a concentration range from 1 nM up to 200 μM in the presence of 2.5 μM heparin in 50 mM NH4Ac buffer over night at 37° C. After addition of 20 μM ThS the signal was measured at 521 nm (emission) at an excitation wavelength of 440 nm. The results of this assay are presented in the IC50 column and DC50 column of Table 1 below.

For the next data set, the system named is uninduced N2A cells. It counts as cell-based. The settings on record: cell death as percent of LDH released into medium vs total LDH, compound 10 μM. As to the method:
Neurotoxicity assay: Neurotoxicity was assessed using an LDH (lactate dehydrogenase) assay kit (Roche, Mannheim, Germany) according to the manufacturer's specifications. In the viability assay the aggregation inhibitor compound was added at a final concentration of 10 μM to uninduced N2A cells. The activity of LDH was measured spectrophotometrically at 492 nm. Cell death was calculated as percent of LDH released into medium, compared to total LDH obtained after total cell lysis.
A general note: Release of lactate dehydrogenase indicates damage to the cell membrane.

Another data set relates to N2a/K18ΔK280 cells. In words: Tau aggregation and inhibition assay in cells (ThS staining). It is filed as cell-based. The settings on record: 120 h; N2a/K18ΔK280 cells, compound 10 μM with doxycyclin, 5 days, ThS-positive cells scored; read-out: Inhibition in cells. How it is done:
Selection of an N2a, Tet-On, G418-resistant cell line: N2a cells were cotransfected with both the pUHD172-1 plasmid (encoding the rtTA, obtained from H. Bujard, Heidelberg) and pEU-1 plasmid (encoding G418 resistance, a derivative of pRc/CMV, Invitrogen) (ratio 20:1; 1 μg/well of 6-well plates) using the DOTAP transfection reagent (Roche, Basel, CH). The cells were cultured in Eagle's Minimum Essential Medium (MEM) supplemented with 10% defined fetal bovine serum and subjected to G418 (600 μg/ml) and selection. The cells were fed with fresh media every 4 days for 3-4 weeks when single colonies appeared. Clones were tested for the induction level by transient transfection of pUHG 16-3 plasmid and the induction of β-galactosidase was measured.
Generation of inducible Tet-On cell lines: The DNA fragments encoding the appropriate tau constructs (K18WT, K18ΔK280, K18/ΔK280/PP) were inserted into the bidirectional vector pBI-5 between ClaI and SalI restriction sites (pBI-5 is an unpublished derivative of pBI-2, Baron et al., 1995). The pBI-5/K18-derived plasmids with pX343 (plasmid encoding the hygromycin resistance) were used for cotransfection of N2a/Tet-On, G418-resistant cells with the aid of DOTAP (20:1 plasmid ratio; 1 μg/well of 6-well plates). The cells were seeded at 4×10^5 cells per well. On the following day cells were transferred to 100-mm dishes and selected with 100 μg/ml of hygromycin and 600 μg/ml of G418. Clonal cell lines were screened for the inducible expression of K18 derivatives by measuring luciferase activity with the luciferase assay and immunofluorescence for tau protein with the polyclonal pan-tau antibody K9JA.
Induction of K18-derivatives in Tet-On N2a cells: The inducible N2a/K18-derivatives cells were cultured in MEM medium supplemented with 10% fetal calf serum, 2 mM glutamine and 0.1% nonessential amino acids. The expression of K18 constructs was induced by adding 1 μg doxycyclin (Dox) per 1 ml medium. The induction was continued for 7-11 days, the medium was changed 3 times (always complemented with doxycyclin). For tau solubility assays the cells were collected by pelleting during centrifugation at 1000×g for 5 min. The levels and solubility of tau K18/ΔK280 were determined following Greenberg and Davies (1990). The cells were homogenized (DIAX900, Heidolph, Schwabach, Germany) in 10 vol (w/v) of buffer consisting of 10 mM Tris-HCl (pH 7.4), 0.8 M NaCl, 1 mM EGTA, and 10% sucrose. The homogenate was spun for 20 min at 20000×g, and the supernatant was retained. The pellet was re-homogenized in 5 vol of homogenization buffer and re-centrifuged. Both supernatants were combined, brought to 1% N-laurylsarkosinate (w/v) and incubated for 1 hr at room temperature while shaking, followed by centrifugation at 100 000×g for 1 hr. The sarkosyl-insoluble pellets were resuspended in 50 mM Tris-HCl (pH 7.4), 0.5 ml per 1 g of starting material. The supernatant and sarkosyl-insoluble pellet samples were analyzed by Western blotting. The amount of material loaded for supernatant and sarkosyl-insoluble pellet represented about 0.5% and 15% of the total material present in the supernatant and pellet respectively (the ratio between supernatant and sarkosyl insoluble pellet was always 1:30). For quantification of tau levels in each fraction, the Western blots were probed with pan-tau antibody K9JA and analyzed by densitometry (LAS 3000 and AIDA software, Raytest, Straubenhardt, Germany).
Quantitation of tau aggregation in cells by Thioflavin S (ThS) staining: Tet-On inducible undifferentiated N2a cells were treated with 1 μg/ml doxycyclin for 5, 7 or 9 days in a culture dish. After that the cells were trypsinized and transferred to coverslips and incubated overnight. The cells on the coverslips were fixed with 4% paraformaldehyde in PBS for 15 min, then permeabilized with 80% MeOH for 6 min at −20° C., and incubated with 0.1% Thioflavin S for 5 min and washed three times in ethanol (50%). […]

Some results are limits rather than exact numbers.

tau construct K19, sequence (P10636 with tags, fused parts or gaps isoform P10636-2 limits assumed): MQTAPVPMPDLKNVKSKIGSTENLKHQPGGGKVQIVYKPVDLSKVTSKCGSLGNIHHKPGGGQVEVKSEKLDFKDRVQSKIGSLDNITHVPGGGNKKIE

As a reminder, the inhibition is the percentage by which the read-out fell short of the control. With `O=C(NNc1nc(-c2ccc([N+](=O)[O-])cc2)cs1)c1ccc(-c2ccccc2)cc1` [Comp. 7, N′-[4-(4-nitrophenyl)-1,3-thiazol-2-yl]-1,1′-biphenyl-4-carbohydrazide], on tau construct K19, the DC50 is 1.2 µM and the IC50 came out at 1.3 µM. Also, in the data set on uninduced N2A cells, the LDH came out at 5.0%. Moreover, the inhibition at 10 µM in the data set with N2a/K18ΔK280 cells was 69.7%.
As for `O=C(NNc1nc(-c2ccc(Br)cc2)cs1)Nc1ccccc1` [Comp. 30, 2-[4-(4-bromophenyl)-1,3-thiazol-2-yl]-N-phenylhydrazinecarboxamide], at tau construct K19, the DC50 is over 200 µM and the IC50 was found to be 146 µM. In addition, the LDH with uninduced N2A cells is reported as 6.4%.
For `O=C(NNc1nc(-c2ccc(F)cc2)cs1)c1ccc(Cl)cc1` [Comp. 31, 4-chloro-N′-[4-(4-fluorophenyl)-1,3-thiazol-2-yl]benzohydrazide], in that order: over 200 µM, 184 µM and 56.1%.
For `Cc1sc(NNC(=O)c2ccc(F)cc2)nc1-c1ccccc1` [Comp. 32, 4-fluoro-N′-(5-methyl-4-phenyl-1,3-thiazol-2-yl)benzohydrazide], in that order: over 200 µM, 195 µM and 18.4%.
As for `O=C(NNc1nc(-c2cc3ccccc3oc2=O)cs1)c1ccc2c(c1)OCO2` [Comp. 33, N′-[4-(2-oxo-2H-chromen-3-yl)-1,3-thiazol-2-yl]-1,3-benzodioxole-5-carbohydrazide], at tau construct K19, the DC50 was over 200 µM and the IC50 is over 200 µM. In addition, the LDH in the data set with uninduced N2A cells amounted to 2.0%.
As to `O=C(NNc1nc(-c2ccccc2)cs1)c1ccc(F)cc1` [Comp. 34, 4-fluoro-N′-(4-phenyl-1,3-thiazol-2-yl)benzohydrazide], on tau construct K19, the DC50 is over 200 µM and the IC50 was over 200 µM. In the data set with uninduced N2A cells, the LDH came to 2.6%.
On to `COc1cccc(-c2csc(NNC(=O)c3ccncc3)n2)c1` [Comp. 35, N′-[4-(3-methoxyphenyl)-1,3-thiazol-2-yl]isonicotinohydrazide], for which, at tau construct K19, the DC50 was over 200 µM and the IC50 was over 200 µM. Further, the LDH in the data set with uninduced N2A cells is given as 3.2%.
As for `O=C(CCc1ccccc1)NNc1nc(-c2ccc(Br)cc2)cs1` [Comp. 36, N′-[4-(4-bromophenyl)-1,3-thiazol-2-yl]-3-phenylpropanohydrazide], at tau construct K19, the DC50 is over 200 µM and the IC50 was over 200 µM. Besides, the LDH in the data set on uninduced N2A cells was 3.3%.
In the case of `O=C(NNc1nc(-c2ccccc2)cs1)c1ccc(-c2ccccc2)cc1` [Comp. 37, N′-(4-phenyl-1,3-thiazol-2-yl)-1,1′-biphenyl-4-carbohydrazide], at tau construct K19, the DC50 is over 200 µM and the IC50 is over 200 µM. In the data set on uninduced N2A cells, the LDH is given as 3.6%.
Consider `O=C(NNc1nc(-c2ccc(Br)cc2)cs1)c1ccc2c(c1)OCO2` [Comp. 38, N′-[4-(4-bromophenyl)-1,3-thiazol-2-yl]-1,3-benzodioxole-5-carbohydrazide], for which, at tau construct K19, the DC50 is over 200 µM and the IC50 was over 200 µM. In addition, the LDH in the data set with uninduced N2A cells was determined as 4.6%.
As to `O=C(NNc1nc(-c2ccc(Br)cc2)cs1)c1ccc(-c2ccccc2)cc1` [Comp. 39, N′-[4-(4-bromophenyl)-1,3-thiazol-2-yl]-1,1′-biphenyl-4-carbohydrazide], at tau construct K19, the DC50 was over 200 µM and the IC50 is over 200 µM. Moreover, the LDH in the data set on uninduced N2A cells came to 4.9%.
`O=C(NNc1nc(-c2ccc(Br)cc2)cs1)c1ccc(F)cc1` [Comp. 40, N′-[4-(4-bromophenyl)-1,3-thiazol-2-yl]-4-fluorobenzohydrazide]: at tau construct K19, the DC50 was over 200 µM and the IC50 is over 200 µM. For the same compound, the LDH in the data set with uninduced N2A cells was 4.9%.
For `O=C(NNc1nc(-c2ccccc2)cs1)c1ccccc1F` [Comp. 41, 2-fluoro-N′-(4-phenyl-1,3-thiazol-2-yl)benzohydrazide], at tau construct K19, the DC50 was determined as 127 µM and the IC50 is over 200 µM. In addition, the LDH in the data set with uninduced N2A cells is given as 6.5%.
For `O=C(NNc1nc(-c2ccccc2)cs1)c1ccc2ccccc2c1` [Comp. 42, N′-(4-phenyl-1,3-thiazol-2-yl)-2-naphthohydrazide], in that order: 16.4 µM, over 200 µM and 8.2%.
Regarding `O=C(NNc1nc(-c2ccc(Br)cc2)cs1)c1ccc2[nH]cnc2c1` [Comp. 43, N′-[4-(4-bromophenyl)-1,3-thiazol-2-yl]-1H-benzimidazole-5-carbohydrazide], at tau construct K19, the DC50 amounted to 31.7 µM and the IC50 was over 200 µM. The LDH in the data set with uninduced N2A cells came to 11.5%.
Taken in the same sequence, the figures for `O=C(NNc1nc2c(s1)Cc1ccccc1-2)c1ccc2c(c1)OCO2` [Comp. 44, N′-8H-indeno[1,2-d][1,3]thiazol-2-yl-1,3-benzodioxole-5-carbohydrazide] were over 200 µM, over 200 µM and 18.8%.
Take `O=C(NNc1nc(-c2ccccc2)cs1)c1ccc2c(c1)OCO2` [Comp. 45, N′-(4-phenyl-1,3-thiazol-2-yl)-1,3-benzodioxole-5-carbohydrazide]: at tau construct K19, the DC50 was over 200 µM and the IC50 is over 200 µM. In the data set with uninduced N2A cells, the LDH is listed as 22.6%.
For the compound `O=C(NNc1nc(-c2cc3ccccc3oc2=O)cs1)c1ccc(-c2ccccc2)cc1` [Comp. 47, N′-[4-(2-oxo-2H-chromen-3-yl)-1,3-thiazol-2-yl]-1,1′-biphenyl-4-carbohydrazide], on tau construct K19, the DC50 is over 200 µM and the IC50 was over 200 µM. Also, the LDH with uninduced N2A cells came out at 44.7%.
Turning to `CC(C)(C)c1csc(NNC(=O)c2ccc(Cl)cc2)n1` [Comp. 48, N′-(4-tert-butyl-1,3-thiazol-2-yl)-4-chlorobenzohydrazide], on tau construct K19, the DC50 is over 200 µM and the IC50 was over 200 µM. Besides, the LDH in the data set with uninduced N2A cells was 48.1%.
Take `O=C(NNc1nc(-c2ccc3ccccc3c2)cs1)c1ccc(C(F)(F)F)cc1` [Comp. 50, N′-[4-(2-naphthyl)-1,3-thiazol-2-yl]-4-(trifluoromethyl)benzohydrazide]: the LDH with uninduced N2A cells is given as −7.6%. In the data set with N2a/K18ΔK280 cells, the inhibition at 10 µM was determined as 52.6%.
As for `Cc1nc(NNC(=O)c2ccc(-c3ccccc3)cc2)sc1-c1ccc(Br)cc1` [Comp. 64, N′-[5-(4-bromophenyl)-4-methyl-1,3-thiazol-2-yl]-1,1′-biphenyl-4-carbohydrazide], the IC50 at tau construct K19 was over 200 µM. Also, in the data set on uninduced N2A cells, the LDH is reported as 8.9%.
Consider `O=C(NNc1nc(-c2ccc(N3CCCC3)cc2)cs1)c1ccc(F)nc1` [Comp. 75, 6-fluoro-N′-[4-(4-pyrrolidin-1-ylphenyl)-1,3-thiazol-2-yl]nicotinohydrazide], for which, on tau construct K19, the DC50 amounted to 44.6 µM and the IC50 is 42.1 µM. In the data set with uninduced N2A cells, the LDH is recorded as 12.2%.

The values are drawn from patent publication US8410152B2 (Max-Planck-Gesellschaft zur Forderung der Wissenschaften e. …, priority 2006, dated 2013).
